Laboratory results: patent publication US4782057A, “Benzo[h]cinnoline compound, a method of preparing said compound and a pharmaceutical composition” (Yoshitomi Pharmaceutical Industries, Ltd., priority 1984, dated 1988)
pKi: −log10 of the molar value.

Tests used:
benzodiazepine receptor = test: Displacement of tritiated diazepam from benzodiazepine receptor (crude synaptosomal membranes of rat cerebral cortex); assay type: binding, male Wistar rats; conditions: tritiated diazepam 2 nM, 4° C., 20 minutes, Tris-HCl pH 7.4
Protocol: A displacement ability for benzodiazepine receptor is shown as follows:
A specific binding for benzodiazepine receptor was determined according to the methods described in European Journal of Pharmacology, vol. 51, p. 129 (1978) and Life Science, vol. 20, p. 1201 (1977).
In brief, the crude synaptosomal membranes were prepared from the cerebral cortex of 9 to 10 week-old male Wistar rats and were suspended in Tris-HCl buffer (pH 7.4). Various concentrations of test compounds and tritiated diazepam (final concentration: 2 nM) were incubated at 4° C. for 20 minutes. Then the suspension was filtered through Whatman GF/B glass fiber filters. Radioactivity of tritiated diazepam on the filters was measured by liquid scintillation spectrometry. Specific binding was defined as the difference in the amount of radioactivity bound in the absence and presence of 1.0×10^-6 M unlabeled diazepam.
According to the above experimental method, the affinity of the compounds of the present invention is evaluated as an ability to displace tritiated diazepam from the binding site, and is represented as Ki value.

mice = test: Acute toxicity in mice; assay type: in vivo
Excerpt: The compound of Example 13 was orally or intraperitoneally administered to mice.

Row | SMILES | pKi (benzodiazepine receptor) | survival, acute toxicity (mice; intraperitoneal dose of 250 mg/kg) | survival, acute toxicity (mice; oral dose of 1000 mg/kg)
1 | O=c1cc2c(nn1-c1ccccc1)-c1ccccc1CC2 [Example 3, 2-phenyl-5,6-dihydrobenzo[h]cinnolin-3(2H)-one] | 6.89 | – | –
2 | O=C1CC2CCc3ccc(Cl)cc3C2=NN1c1ccccc1 (stereo not shown) [Example 1, 9-chloro-2-phenyl-4,4a,5,6-tetrahydrobenzo[h]cinnolin-3(2H)-one] | 6.92 | – | –
3 | Cc1ccc(N2N=C3c4cc(C)ccc4CCC3CC2=O)cc1 (stereo not shown) [Example 11, 9-Methyl-2-(4-methylphenyl)-4,4a,5,6-tetrahydrobenzo[h]cinnolin-3(2H)-one] | 7.80 | – | –
4 | O=c1cc2c(nn1-c1ccccc1)-c1cc(Cl)ccc1CC2 [Example 2, 9-chloro-2-phenyl-5,6-dihydrobenzo[h]cinnolin-3(2H)-one] | 6.72 | – | –
5 | COc1ccc(N2N=C3c4cc(C)ccc4CCC3CC2=O)cc1 (stereo not shown) [Example 13, 2-(4-Methoxyphenyl)-9-methyl-4,4a,5,6-tetrahydrobenzo[h]cinnolin-3(2H)-one] | 8.18 | All mice survived | All mice survived
6 | Cc1ccc(-n2nc3c(cc2=O)CCc2ccc(Cl)cc2-3)cc1 [Example 15, 9-Chloro-2-(4-methylphenyl)-5,6-dihydrobenzo[h]cinnolin-3(2H)-one] | 7.55 | – | –
7 | Cc1ccc2c(c1)C1=NN(c3ccc(Cl)cc3)C(=O)CC1CC2 (stereo not shown) [Example 12, 2-(4-Chlorophenyl)-9-methyl-4,4a,5,6-tetrahydrobenzo[h]cinnolin-3(2H)-one] | 7.59 | – | –
8 | COc1ccc2c(c1)C1=NN(c3ccc(C)cc3)C(=O)CC1CC2 (stereo not shown) [Example 14, 9-Methoxy-2-(4-methylphenyl)-4,4a,5,6-tetrahydrobenzo[h]cinnolin-3(2H)-one] | 8.09 | – | –

Now from value to molecule, other results behind:

Row | pKi (benzodiazepine receptor) | SMILES | survival, acute toxicity (mice; intraperitoneal dose of 250 mg/kg) | survival, acute toxicity (mice; oral dose of 1000 mg/kg)
9 | 7.35 | O=c1cc2c(nn1-c1ccc(Cl)cc1)-c1cc(F)ccc1CC2 [Example 19, 2-(4-Chlorophenyl)-9-fluoro-5,6-dihydrobenzo[h]cinnolin-3(2H)-one] | – | –
10 | 7.05 | O=c1cc2c(nn1-c1ccc([N+](=O)[O-])cc1)-c1cc(Cl)ccc1CC2 [Example 18, 9-Chloro-2-(4-nitrophenyl)-5,6-dihydrobenzo[h]cinnolin-3(2H)-one] | – | –
11 | 7.33 | O=c1cc2c(nn1-c1ccc(Cl)cc1)-c1cc(Cl)ccc1CC2 [Example 17, 9-Chloro-2-(4-chlorophenyl)-5,6-dihydrobenzo[h]cinnolin-3(2H)-one] | – | –
12 | 7.47 | O=C1CC2CCc3ccc(F)cc3C2=NN1c1ccc(Cl)cc1 (stereo not shown) [Example 20, 2-(4-Chlorophenyl)-9-fluoro-4,4a,5,6-tetrahydrobenzo[h]cinnolin-3(2H)-one] | – | –
13 | 7.85 | Cc1ccc(N2N=C3c4cc(Cl)ccc4CCC3CC2=O)cc1 (stereo not shown) [Example 16, 9-Chloro-2-(4-methylphenyl)-4,4a,5,6-tetrahydrobenzo[h]cinnolin-3(2H)-one] | – | –
14 | 6.66 | O=c1cc2c(nn1-c1ccccc1)-c1cc(F)ccc1CC2 [Example 30, 9-Fluoro-2-phenyl-5,6-dihydrobenzo[h]cinnolin-3(2H)-one] | – | –
